Like-named read-outs stand apart in the source and are kept apart here.
How the values were obtained:
[1] = test system: acutely dissociated and purified rat OPCs; test: Acute OL differentiation assay (MBP expression/cell, immunofluorescent image quantification); format: cell-based; conditions: sheet "All OLga data"; for activation at 2 µM / activation at 10 µM / activation at 0.4 µM: Rattus norvegicus; for activation at 0.4 µM: read-out: 0.4 uM (% Quet)
Procedure, shortened: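 Oligodendrocyte precursor cells were enriched from P6-P7 Sprague–Dawley rat brains by immunopanning (RAN-2 and GalC depletion, O4 selection), plated at 5000 cells/well in serum-free, mitogen-free differentiation media on PDL/laminin 96-well view plates, centrifuged at 200×g, and pre-incubated 1–2 h before test compounds were added in quadruplicate. On DIV4, cells were fixed, stained for MBP and DAPI, imaged automatically, and MBP expression per cell was quantified.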

expanded OPCs = test: cells; conditions: for viability at 0.1 µM / viability at 1 µM / viability at 10 µM: Rattus norvegicus, 72 h
Procedure, shortened: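 Expanded OPCs seeded at 10,000 cells/well in differentiation media, then exposed to NCC library compounds at 10, 1 and 0.1 µM (quadruplicate, 0.1% DMSO) for three days. Viability read as alamarBlue fluorescence (560/590 nm) after 4 h at 37 °C; tunicamycin 5 ng/ml served as toxicity control.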

[2] = test compound at 0.4 uM, NCC library screen, relative to quetiapine
[3] = test compound at 2 uM, MBP expression relative to quetiapine, NCC library screen, read-out: 2 uM (% Quet)
[4] = test compound at 10 uM, MBP expression relative to quetiapine, NCC library screen, read-out: 10 uM (% Quet)
[5] = alamarBlue viability of expanded OPCs, compound at 0.1 µM, relative to DMSO control
[6] = alamarBlue viability of expanded OPCs, compound at 1 µM, relative to DMSO control
[7] = alamarBlue viability of expanded OPCs, compound at 10 µM, relative to DMSO control
[8] = 2 uM test compound, relative to quetiapine, read-out: OL differentiation, 2 uM (% Quet)
[9] = 10 uM test compound, relative to quetiapine, read-out: OL differentiation, 10 uM (% Quet)
[10] = read-out: 0.1 µM (% DMSO), alamarBlue viability of expanded OPCs, compound at 0.1 µM, sheet All Tox data
[11] = read-out: 1 µM (% DMSO), alamarBlue viability of expanded OPCs, compound at 1 µM, sheet All Tox data
[12] = read-out: 10 µM (% DMSO), alamarBlue viability of expanded OPCs, compound at 10 µM, sheet All Tox data
[13] = test compound at 2 uM, NCC library screen, relative to quetiapine, read-out: 2 uM (% Quet)
[14] = test compound at 10 uM, NCC library screen, relative to quetiapine, read-out: 10 uM (% Quet)
[15] = read-out: 0.1 µM (% DMSO), alamarBlue viability, NCC library compound at 0.1 µM, sheet "All Tox data"
[16] = read-out: 1 µM (% DMSO), alamarBlue viability, NCC library compound at 1 µM, sheet "All Tox data"
[17] = read-out: 10 µM (% DMSO), alamarBlue viability, NCC library compound at 10 µM, sheet "All Tox data"

With `CC[C@H](C)C(=O)O[C@H]1CCC=C2C=C[C@H](C)[C@H](CC[C@@H]3C[C@@H](O)CC(=O)O3)[C@H]21` [Mevistatin] the “0.4 uM (% Quet)” value [1, 2] was -87.3 % Quet, the “2 uM (% Quet)” value ([1]; test compound at 2 uM, NCC library screen, relative to quetiapine) was -111.9 % Quet and the “0.1 µM (% DMSO)” value (expanded OPCs; alamarBlue viability, NCC library compound at 0.1 µM, sheet "All Tox data") was 135.8 % DMSO. The “1 µM (% DMSO)” value (expanded OPCs; alamarBlue viability, NCC library compound at 1 µM, sheet "All Tox data") was 96.3 % DMSO and the “10 µM (% DMSO)” value (expanded OPCs; alamarBlue viability, NCC library compound at 10 µM, sheet "All Tox data") was 54.8 % DMSO.
With `Cc1cccc(C)c1OCC(C)N` (stereo not drawn) [Mexiletine] the activation at 2 µM [1, 3] was -15.2%, the activation at 10 µM [1, 4] was -7.4% and the “0.1 µM (% DMSO)” value (expanded OPCs; [5]) was 91.7 % DMSO. For the same compound, the “1 µM (% DMSO)” value (expanded OPCs; [6]) was 86.5 % DMSO and the “10 µM (% DMSO)” value (expanded OPCs; [7]) was 72.1 % DMSO.
For `Clc1ccc(COC(Cn2ccnc2)c2ccc(Cl)cc2Cl)c(Cl)c1` (stereo not drawn) [Miconazole], the activation at 0.4 µM [1, 2] was 43.2%, the “0.1 µM (% DMSO)” value (expanded OPCs; [5]) was 91.9 % DMSO and the “1 µM (% DMSO)” value (expanded OPCs; [6]) was 108.6 % DMSO. The “10 µM (% DMSO)” value (expanded OPCs; [7]) was 9.2 % DMSO.
`Cc1ncc2n1-c1ccc(Cl)cc1C(c1ccccc1F)=NC2` [Midazolam] gave an activation at 2 µM [1, 8] of -15.2%, an activation at 10 µM [1, 9] of -81.7% and a viability at 0.1 µM (expanded OPCs; [10]) of 91%. For the same compound, the viability at 1 µM (expanded OPCs; [11]) was 99.9% and the viability at 10 µM (expanded OPCs; [12]) was 128%.
In the case of `CCC(=O)O[C@@H]1CC(=O)O[C@H](C)C/C=C/C=C/[C@H](O)[C@H](C)C[C@H](CC=O)[C@H](O[C@@H]2O[C@H](C)[C@@H](O[C@H]3C[C@@](C)(O)[C@@H](OC(=O)CC)[C@H](C)O3)[C@H](N(C)C)[C@H]2O)[C@H]1OC` [Midecamycin], the activation at 2 µM [1, 8] is reported as -0.9%, the activation at 10 µM [1, 9] is reported as -11.3% and the viability at 0.1 µM (expanded OPCs; [10]) is reported as 92.7%. It also gave a viability at 1 µM (expanded OPCs; [11]) of 95.7% and a viability at 10 µM (expanded OPCs; [12]) of 91.2%.
For `COc1ccc(OC)c(C(O)CNC(=O)CN)c1` (stereo not drawn) [Midodrine], the activation at 2 µM [1, 13] was -2.5%, the activation at 10 µM [1, 14] was 6.3% and the “0.1 µM (% DMSO)” value (expanded OPCs; [5]) was 90.8 % DMSO. The “1 µM (% DMSO)” value (expanded OPCs; [6]) was 88.9 % DMSO and the “10 µM (% DMSO)” value (expanded OPCs; [7]) was 89.1 % DMSO.
`CC#C[C@]1(O)CC[C@H]2[C@@H]3CCC4=CC(=O)CCC4=C3[C@@H](c3ccc(N(C)C)cc3)C[C@@]21C` [Mifepristone] showed an activation at 0.4 µM [1, 2] of -2.7%, an activation at 2 µM [1, 13] of -139% and a viability at 0.1 µM (expanded OPCs; [15]) of 84.5%. For the same compound, the viability at 1 µM (expanded OPCs; [16]) was 71.3% and the viability at 10 µM (expanded OPCs; [17]) was 26.4%.
`OCCN1C[C@H](O)[C@@H](O)[C@H](O)[C@H]1CO` [Miglitol] was tested, and the activation at 2 µM [1, 8] was 13.5%, the activation at 10 µM [1, 9] was -3.3% and the viability at 0.1 µM (expanded OPCs; [10]) was 90.6%. For the same compound, the viability at 1 µM (expanded OPCs; [11]) was 92.6% and the viability at 10 µM (expanded OPCs; [12]) was 90.3%.
For `CCN(CC)C(=O)C1(c2ccccc2)CC1CN` (stereo not drawn) [Milnacipran], the activation at 2 µM [1, 8] was -17.2%, the activation at 10 µM [1, 9] was -8.5% and the viability at 0.1 µM (expanded OPCs; [15]) was 88.4%. It also gave a viability at 1 µM (expanded OPCs; [16]) of 85.1% and a viability at 10 µM (expanded OPCs; [17]) of 71.2%.
In the case of `Cc1[nH]c(=O)c(C#N)cc1-c1ccncc1` [Milrinone], the activation at 2 µM [1, 8] is reported as 5.1%, the activation at 10 µM [1, 9] is reported as -2.1% and the viability at 0.1 µM (expanded OPCs; [15]) is reported as 87.2%. For the same compound, the viability at 1 µM (expanded OPCs; [16]) was 85.8% and the viability at 10 µM (expanded OPCs; [17]) was 79.6%.
`CN(C)c1ccc(O)c2c1C[C@H]1C[C@H]3[C@H](N(C)C)C(O)=C(C(N)=O)C(=O)[C@@]3(O)C(O)=C1C2=O` [Minocycline] was tested, and the activation at 2 µM [1, 13] was 10.9%, the activation at 10 µM [1, 14] was -13.3% and the “0.1 µM (% DMSO)” value (expanded OPCs; [5]) was 90.1 % DMSO. The “1 µM (% DMSO)” value (expanded OPCs; [6]) was 90.9 % DMSO and the “10 µM (% DMSO)” value (expanded OPCs; [7]) was 83.5 % DMSO.
With `Nc1cc(N2CCCCC2)nc(N)[n+]1[O-]` [Minoxidil] the activation at 2 µM [1, 3] was 13.4%, the activation at 10 µM [1, 4] was -4.2% and the “0.1 µM (% DMSO)” value (expanded OPCs; [5]) was 93.0 % DMSO. For the same compound, the “1 µM (% DMSO)” value (expanded OPCs; [6]) was 102.8 % DMSO and the “10 µM (% DMSO)” value (expanded OPCs; [7]) was 89.5 % DMSO.
For `CN1CCN2c3ncccc3Cc3ccccc3C2C1` (stereo not drawn) [Mirtazapine], the activation at 0.4 µM [1, 2] was -26.7%, the activation at 2 µM [1, 13] was -35.7% and the viability at 0.1 µM (expanded OPCs; [15]) was 94.4%. For the same compound, the viability at 1 µM (expanded OPCs; [16]) was 73% and the viability at 10 µM (expanded OPCs; [17]) was 60.1%.
For `O=C(NCCN1CCOCC1)c1ccc(Cl)cc1` [Moclobemide], the activation at 2 µM [1, 8] was 9.8%, the activation at 10 µM [1, 9] was -9.7% and the viability at 0.1 µM (expanded OPCs; [10]) was 99.2%. It also gave a viability at 1 µM (expanded OPCs; [11]) of 110% and a viability at 10 µM (expanded OPCs; [12]) of 113%.

Reference: publication PMC5011342, “A high throughput drug screening assay to identify compounds that promote oligodendrocyte differentiation using acutely dissociated and purified oligodendrocyte precursor cells” (BMC Research Notes, 2016)
